The text below walks through data of US9023789B2, “Amylin analogs and pharmaceutical compositions thereof” (Novo Nordisk A/S, priority 2012, dated 2015).

Numbered stars: 1 amine (or outer) side, 2 acyl side, 3 side chain; on linkers, the order of the positions; unused ones are H or OH. Bridge positions count the residues as written; N and C are the ends. Side chains are listed from the residue outwards. Peptide text beside a SMILES is read from it. * marks the point of attachment. C20 diacid = O=C(O)CCCCCCCCCCCCCCCCCCC(=O)*; γGlu = O=C(O)[C@H](CCC(=O)[*:2])N[*:1]; AEEA = NCCOCCOCC(=O)O

As a reminder, the IC50 is the concentration that gives 50% inhibition.

The assay deals with T1, human calcitonin receptor (Homo sapiens, UniProt P30988).
T1 construct: expressed in transfected cells
T1 sequence (P30988 25-474): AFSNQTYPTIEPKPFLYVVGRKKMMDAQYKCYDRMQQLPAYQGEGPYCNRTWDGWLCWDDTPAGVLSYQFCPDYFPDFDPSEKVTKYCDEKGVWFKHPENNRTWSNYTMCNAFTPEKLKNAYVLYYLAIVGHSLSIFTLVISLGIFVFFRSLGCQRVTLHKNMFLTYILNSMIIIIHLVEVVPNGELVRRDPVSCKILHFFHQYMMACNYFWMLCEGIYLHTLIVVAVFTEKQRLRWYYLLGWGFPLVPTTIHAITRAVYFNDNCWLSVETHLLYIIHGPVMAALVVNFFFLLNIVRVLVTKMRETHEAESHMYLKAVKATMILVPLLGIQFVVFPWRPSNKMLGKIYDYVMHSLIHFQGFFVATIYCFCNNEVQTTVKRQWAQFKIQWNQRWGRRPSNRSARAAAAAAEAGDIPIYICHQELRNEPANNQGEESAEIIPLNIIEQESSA
Description: ASSAY (VII) binding to the human calcitonin receptor (SPA, 125I-Calcitonin).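 Further: cell membranes (35 ng/µL) combined with SPA beads in 40 µL of pH 7.4 Hepes buffer, 384-well format, signal counted on a TopCounter instrument.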 The following applies: read-out: hCTR bind IC50.
As to `CC[C@H](C)[C@H](NC(=O)[C@H](C)NC(=O)CNC(=O)[C@H](Cc1ccccc1)NC(=O)[C@H](CC(N)=O)NC(=O)[C@@H]1CCCN1C(=O)[C@H](CO)NC(=O)[C@H](CO)NC(=O)[C@H](Cc1c[nH]cn1)NC(=O)[C@H](CCCNC(=N)N)NC(=O)[C@H](CC(C)C)NC(=O)[C@H](Cc1ccccc1)NC(=O)[C@H](CCC(=O)O)NC(=O)[C@H](C)NC(=O)[C@H](CC(C)C)NC(=O)[C@H](CCCNC(=N)N)NC(=O)[C@H](CCC(N)=O)NC(=O)[C@@H](NC(=O)[C@H](C)NC(=O)[C@@H]1CSSC[C@H](NC(=O)[C@H](CCCCN)NC(=O)CC[C@H](NC(=O)CCCCCCCCCCCCCCCCCCC(=O)O)C(=O)O)C(=O)N[C@@H](CC(N)=O)C(=O)N[C@@H]([C@@H](C)O)C(=O)N[C@@H](C)C(=O)N[C@@H]([C@@H](C)O)C(=O)N1)[C@@H](C)O)C(=O)N1CCC[C@H]1C(=O)N[C@@H](CO)C(=O)N[C@@H](CO)C(=O)N[C@H](C(=O)N[C@@H](CC(N)=O)C(=O)N[C@H](C(=O)NCC(=O)N[C@@H](CO)C(=O)N[C@@H](Cc1c[nH]cn1)C(=O)N[C@H](C(=O)N[C@@H](Cc1ccc(O)cc1)C(N)=O)[C@@H](C)O)C(C)C)[C@@H](C)O` [Example 18] ({C20 diacid-γGlu}-KCNTATCATQRLAEFLRHSSPNFGAIPSSTNVGSHTY-NH2; disulfide 2-7), the IC50 came out at 5.09 nM.
To `CC[C@H](C)[C@H](NC(=O)[C@H](C)NC(=O)CNC(=O)[C@H](Cc1ccccc1)NC(=O)[C@H](CC(N)=O)NC(=O)[C@@H]1CCCN1C(=O)[C@H](CO)NC(=O)[C@H](CO)NC(=O)[C@H](Cc1c[nH]cn1)NC(=O)[C@H](CCCNC(=N)N)NC(=O)[C@H](CC(C)C)NC(=O)[C@H](Cc1ccccc1)NC(=O)[C@H](CCC(=O)O)NC(=O)[C@H](C)NC(=O)[C@H](CC(C)C)NC(=O)[C@H](CCCNC(=N)N)NC(=O)[C@H](CCC(N)=O)NC(=O)[C@@H](NC(=O)[C@H](C)NC(=O)[C@@H]1CSSC[C@H](NC(=O)[C@H](CCCCN)NC(=O)COCCOCCNC(=O)COCCOCCNC(=O)CC[C@H](NC(=O)CCCCCCCCCCCCCCCCCCC(=O)O)C(=O)O)C(=O)N[C@@H](CC(N)=O)C(=O)N[C@@H]([C@@H](C)O)C(=O)N[C@@H](C)C(=O)N[C@@H]([C@@H](C)O)C(=O)N1)[C@@H](C)O)C(=O)N1CCC[C@H]1C(=O)N[C@@H](CO)C(=O)N[C@@H](CO)C(=O)N[C@H](C(=O)N[C@@H](CC(N)=O)C(=O)N[C@H](C(=O)NCC(=O)N[C@@H](CO)C(=O)N[C@@H](CC(N)=O)C(=O)N[C@H](C(=O)N1CCC[C@H]1C(N)=O)[C@@H](C)O)C(C)C)[C@@H](C)O` [Example 20] ({C20 diacid-γGlu-AEEA-AEEA}-KCNTATCATQRLAEFLRHSSPNFGAIPSSTNVGSNTP-NH2; disulfide 2-7) belongs 0.787 nM.
The same measure for `CC[C@H](C)[C@H](NC(=O)[C@H](C)NC(=O)CNC(=O)[C@H](Cc1ccccc1)NC(=O)[C@H](CC(N)=O)NC(=O)[C@@H]1CCCN1C(=O)[C@H](CO)NC(=O)[C@H](CO)NC(=O)[C@H](Cc1c[nH]cn1)NC(=O)[C@H](CCCNC(=N)N)NC(=O)[C@H](CC(C)C)NC(=O)[C@H](Cc1ccccc1)NC(=O)[C@H](CC(N)=O)NC(=O)[C@H](C)NC(=O)[C@H](CC(C)C)NC(=O)[C@H](CCCNC(=N)N)NC(=O)[C@H](CCC(N)=O)NC(=O)[C@@H](NC(=O)[C@H](C)NC(=O)[C@@H]1CSSC[C@H](NC(=O)[C@@H](N)CCCCNC(=O)COCCOCCNC(=O)CC[C@H](NC(=O)CCCCCCCCCCCCCCCCCCC(=O)O)C(=O)O)C(=O)N[C@@H](CC(N)=O)C(=O)N[C@@H]([C@@H](C)O)C(=O)N[C@@H](C)C(=O)N[C@@H]([C@@H](C)O)C(=O)N1)[C@@H](C)O)C(=O)N1CCC[C@H]1C(=O)N[C@@H](CO)C(=O)N[C@@H](CO)C(=O)N[C@H](C(=O)N[C@@H](CC(N)=O)C(=O)N[C@H](C(=O)NCC(=O)N[C@@H](CO)C(=O)N[C@@H](CCC(=O)O)C(=O)N[C@H](C(=O)N[C@@H](Cc1ccc(O)cc1)C(N)=O)[C@@H](C)O)C(C)C)[C@@H](C)O` [Example 26] (H-K([AEEA-γGlu-C20 diacid])CNTATCATQRLANFLRHSSPNFGAIPSSTNVGSETY-NH2; disulfide 2-7; N-terminus assumed): 25.3 nM.
With `CC[C@H](C)[C@H](NC(=O)[C@H](C)NC(=O)CNC(=O)[C@H](Cc1ccccc1)NC(=O)[C@H](CC(N)=O)NC(=O)[C@@H]1CCCN1C(=O)[C@H](CO)NC(=O)[C@H](CO)NC(=O)[C@H](Cc1c[nH]cn1)NC(=O)[C@H](CCCNC(=N)N)NC(=O)[C@H](CC(C)C)NC(=O)[C@H](Cc1ccccc1)NC(=O)[C@H](CC(N)=O)NC(=O)[C@H](C)NC(=O)[C@H](CC(C)C)NC(=O)[C@H](CCCNC(=N)N)NC(=O)[C@H](CCC(N)=O)NC(=O)[C@@H](NC(=O)[C@H](C)NC(=O)[C@@H]1CSSC[C@H](NC(=O)[C@H](CCCCN)NC(=O)CC[C@H](NC(=O)CCCCCCCCCCCCCCCCCCC(=O)O)C(=O)O)C(=O)N[C@@H](CC(N)=O)C(=O)N[C@@H]([C@@H](C)O)C(=O)N[C@@H](C)C(=O)N[C@@H]([C@@H](C)O)C(=O)N1)[C@@H](C)O)C(=O)N1CCC[C@H]1C(=O)N[C@@H](CO)C(=O)N[C@@H](CO)C(=O)N[C@H](C(=O)N1CCC[C@H]1C(=O)N[C@H](C(=O)NCC(=O)N[C@@H](CO)C(=O)N[C@@H](CCC(=O)O)C(=O)N[C@H](C(=O)N[C@@H](Cc1ccc(O)cc1)C(N)=O)[C@@H](C)O)C(C)C)[C@@H](C)O` [Example 28] ({C20 diacid-γGlu}-KCNTATCATQRLANFLRHSSPNFGAIPSSTPVGSETY-NH2; disulfide 2-7 (inferred)), the IC50 came to 12.5 nM.
The same measure for `CC[C@H](C)[C@H](NC(=O)[C@H](C)NC(=O)CNC(=O)[C@H](Cc1ccccc1)NC(=O)[C@H](CC(N)=O)NC(=O)[C@@H]1CCCN1C(=O)[C@H](CO)NC(=O)[C@H](CO)NC(=O)[C@H](Cc1c[nH]cn1)NC(=O)[C@H](CCCNC(=N)N)NC(=O)[C@H](CC(C)C)NC(=O)[C@H](Cc1ccccc1)NC(=O)[C@H](CCC(=O)O)NC(=O)[C@H](C)NC(=O)[C@H](CC(C)C)NC(=O)[C@H](CCCNC(=N)N)NC(=O)[C@H](CCC(N)=O)NC(=O)[C@@H](NC(=O)[C@H](C)NC(=O)[C@@H]1CSSC[C@H](NC(=O)[C@H](CCCCN)NC(=O)CC[C@H](NC(=O)CCCCCCCCCCCCCCCCCCC(=O)O)C(=O)O)C(=O)N[C@@H](CC(N)=O)C(=O)N[C@@H]([C@@H](C)O)C(=O)N[C@@H](C)C(=O)N[C@@H]([C@@H](C)O)C(=O)N1)[C@@H](C)O)C(=O)N[C@@H](CC(C)C)C(=O)N1CCC[C@H]1C(=O)N[C@@H](CO)C(=O)N[C@H](C(=O)N[C@@H](CC(N)=O)C(=O)N[C@H](C(=O)NCC(=O)N[C@@H](CO)C(=O)N[C@@H](CCC(=O)O)C(=O)N[C@H](C(=O)N[C@@H](Cc1ccc(O)cc1)C(N)=O)[C@@H](C)O)C(C)C)[C@@H](C)O` [Example 33] ({C20 diacid-γGlu}-KCNTATCATQRLAEFLRHSSPNFGAILPSTNVGSETY-NH2; disulfide 2-7): 3.61 nM.
